From patent publication US4957926A, “Method of treating herpesviruses” (priority 1988, dated 1990)
“Also recorded” adds a separate entry of the source. Read-outs that look alike come from different tables or passages of the source.

Columns and labels:
[1] = tested on: Herpes Simplex Type II (Viral Strain HG52); assay: Herpes Simplex Type II Plaque Reduction Assay; type: cell-based; conditions: for Plaque Count: replicate counts
Description: (§1) For testing the N-Bu-DNJ against HSV, the HSV Type II strain HG52 described by Timbury, J. Gen. Virol. 13, 373-376 (1971), and Davis et al., Analyst 110, 605-609 (1985), is useful. For testing against CMV, the prototype CMV ADl69 strain described, for example, by Tyms et al., J. Gen. Virol. 68, 1563-1573 (1987), and in U.S. Pat. No. 4,743,560, is useful. Another useful CMV strain is the Towne strain described by Glazer et al., Ann. Inter. Med. 91, 676-683 (1979).
(§2) Human embryo fibroblast cells (HEF) were grown in Eagles minimal essential medium supplemented with 7% fetal calf serum (FCS), 9 mM sodium bicarbonate and 7 mM HEPES buffer. In maintenance medium the supplements were adjusted to 2% FCS, 13 mM sodium bicarbonate and 14 mM HEPES. CMV, strain Towne, and HSV type II, strain […], were used in the following tests. CMV virus stocks were prepared and stored by technique as previously described by Tyms & Williamson, Nature 297, 690-691 […]. Herpes virus stocks were prepared and stored by technique as previously described by Davis et al., Analyst 110, 605-609 (1985). The HEF were human embryonic lung fibroblasts, strain MRC-5, as described by Tyms and Williamson, Nature 297, 690-691 (1982).
(§3) For plaque reduction assays, 24-well culture trays were seeded with HEF cells. Confluent monolayers were infected with virus to give initially about 100 plaque-forming-units (p.f.u.) per well. After a one hour absorption period the inocula were replaced by l.5ml of a maintenance medium incorporating 0.5% low gelling temperature agarose, supplemented with various concentrations of test compound. For tests with CMV, infected monolayers were fixed with 5% formalin in phosphate buffered saline (PBS) at 6-8 days post-infection and stained with 0.3% methylene blue after removal of the overlay; whereas, tests with HSV were conducted in the same manner but with the monolayer fixing at 2 days post infection. The mean plaque number was calculated from a multiple series of counts (e.g., duplicate, triplicate or quadruplicate), converted to a percentage of untreated controls and values plotted against the log10 drug concentration. The 50% effective dose (ED50) was determined from best line fits for the curves.
The mean plaque numbers determined on HEF cells exposed to varying amount of N-Bu-DNJ, N-Me-DNJ, N-He-DNJ, 2-deoxy-D-glucose and castanospermine were converted to percentage values (plaque count in presence of drug divided by mean value of untreated controls×100), and plotted as a function of drug concentration [drug (mM)].
The 50% effective dose (ED50)--that amount of drug needed to reduce plaque count by 50%--was calculated to give the following values: […]

[2] = tested on: Cytomegalovirus (Viral Strain Towne); assay: Cytomegalovirus Plaque Reduction Assay; type: cell-based
Description: as §1, §2, §3
In a similar manner, the Effective Dosage Values (ED50) were determined from the curves of FIG. 1. A least squares fit of the data of FIG. 1 to an equation of the form: y=mx+b gave the following values: […]
From these values, a 50% effective dose (ED50) was calculated to give the following values: […]

[3] = tested on: Cytomegalovirus (Viral Strain Towne); assay: Yield Reduction Assay against infections with CMV (Towne strain); type: cell-based; conditions: for Plaque Count (infectivity titre): 10^1 dil.; for activity at 500 µM / activity at 2000 µM: read-out: % Virus Control
Procedure: Antiviral activities of N-Bu-DNJ and comparative test compounds against infections with CMV (Towne strain) were also measured by the yield reduction assay as follows:
HEF cells (MRC-5) were infected at high multiplicity of infection (about one p.f.u. per cell) and incubated with various concentrations of the test compounds for 5 and 6 days post infection. The level of infectious virus shed into the extracellular fluid was determined at 5 and 6 days by plaque assays as described above, using serial dilution of extracellular fluid to bring readings on scale.
In Table VI, to calculate plaque-forming units (PFU) of the maintenance medium overlayering HEF cells, the plaque count at the most sensitive dilution (from Table V) was multiplied by dilution value and then by 5 (0.2 ml sample volumes used in test) to give PFU (per ml maintenance medium). (e.g. calculation of drug control: 31×10^3 ×5=1.6×10^5 PFU).

[4] = tested on: HEF cells (strain MRC-5); assay: HEF cell growth / monolayer appearance in HSV type II plaque reduction assay; type: cell-based, human; conditions: all concentrations (0.56-4.5 mM)
Procedure: as §3

[5] = tested on: HSV type I; assay: preliminary tests with a HSV type I strain which did not form multinucleated giant cells; type: cell-based; conditions: strain not forming giant cells
Description: The formation of multinucleated giant cells (syncytia), which result from the fusion of T4 cells with each other, is one of the most striking properties of HIV [Walker et al., Proc. Natl. Acad. Sci. USA 84, 8120-8124 (1987); Gruters et al., Nature 330, 74-77 (1987)]. Some, but not all, HSV strains also produce these multinucleated giant cells in vitro cell culture.

[6] = Fleet et al., compound No. 57 vs. No. 16; cited from earlier work

CCCCN1C[C@H](O)[C@@H](O)[C@H](O)[C@H]1CO [N-Bu-DNJ, Nbutyl deoxynojirimycin]
antiviral activity against HSV type II (in words) [1]: substantially reduce herpesvirus type II infection of HEF cells; also recorded: strong antiviral activity
EC50 ([1]; HEF, HSV type II, amount of drug needed to reduce plaque count by 50%, read-out: 50% effective dose (ED50)): 1200 µM
activity at 220 µM ([1]; HEF, Table I, 0.22 mM, read-out: % Virus Control): 85%
activity at 450 µM ([1]; HEF, Table I, 0.45 mM, read-out: % Virus Control): 60%
activity at 900 µM ([1]; HEF, Table I, 0.9 mM, read-out: % Virus Control): 37%
activity at 1800 µM ([1]; HEF, Table I, 1.8 mM, read-out: % Virus Control): 40%
activity at 3600 µM ([1]; HEF, Table I, 3.6 mM, read-out: % Virus Control): 7.7%
activity at 560 µM ([1]; HEF, Table III, 0.56 mM, read-out: % Virus Control): 56.9%
activity at 1120 µM ([1]; HEF, Table III, 1.12 mM, read-out: % Virus Control): 51%
activity at 2250 µM ([1]; HEF, Table III, 2.25 mM, read-out: % Virus Control): 27.5%
activity at 4500 µM ([1]; HEF, Table III, 4.5 mM, read-out: % Virus Control): 17.6%
Plaque Count Avg ([1]; Table I, 0.22 mM): 66
Plaque Count ([1]; Table I, 0.22 mM): 80,52
Plaque Count Avg ([1]; Table I, 0.45 mM): 47
Plaque Count ([1]; Table I, 0.45 mM): 42,53
Plaque Count Avg ([1]; Table I, 0.9 mM): 29
Plaque Count ([1]; Table I, 0.9 mM): 36,22
Plaque Count Avg ([1]; Table I, 1.8 mM): 31
Plaque Count ([1]; Table I, 1.8 mM): 41,20
Plaque Count Avg ([1]; Table I, 3.6 mM): 6
Plaque Count ([1]; Table I, 3.6 mM): 5,7
Plaque Count Avg ([1]; Table III, 0.56 mM): 29
Plaque Count Avg ([1]; Table III, 1.12 mM): 26
Plaque Count Avg ([1]; Table III, 2.25 mM): 14
Plaque Count Avg ([1]; Table III, 4.5 mM): 9
EC50 ([2]; Human betaherpesvirus 5, HEF, CMV, calculated from least squares fit of FIG. 1, read-out: 50% effective dose (ED50)): 570 µM
activity at 220 µM ([2]; Human betaherpesvirus 5, HEF, Table IV, 0.22 mM, read-out: % Virus control): 87%
activity at 450 µM ([2]; Human betaherpesvirus 5, HEF, Table IV, 0.45 mM, read-out: % Virus control): 52%
activity at 900 µM ([2]; Human betaherpesvirus 5, HEF, Table IV, 0.90 mM, read-out: % Virus control): 32%
activity at 1800 µM ([2]; Human betaherpesvirus 5, HEF, Table IV, 1.8 mM, read-out: % Virus control): 17%
Plaque Count Avg ([2]; Table IV, 0.22 mM): 153
Plaque Count ([2]; Table IV, 0.22 mM, replicate counts): 159,156,144,153
Plaque Count Avg ([2]; Table IV, 0.45 mM): 92
Plaque Count Avg ([2]; Table IV, 0.90 mM): 56
Plaque Count Avg ([2]; Table IV, 1.8 mM): 30
reduction of CMV infection of HEF cells (in words) ([2]; compared with castanospermine): reduces CMV infection of HEF cells at about the same dosage as does castanospermine
PFU ([3]; 0.5 mM, 5 days HEF growth): 8.5 × 10^5 PFU (per ml maintenance medium
Plaque Count (infectivity titre) ([3]; 0.5 mM, 5 days growth): ~ 200
PFU ([3]; 0.5 mM, 6 days HEF growth): 1.3 × 10^4 PFU (per ml maintenance medium
Plaque Count (infectivity titre) ([3]; 0.5 mM, 6 days growth): ~ 200
PFU ([3]; 2.0 mM, 5 days HEF growth): 1.4 × 10^3 PFU (per ml maintenance medium
PFU ([3]; 2.0 mM, 6 days HEF growth): 5.5 × 10^2 PFU (per ml maintenance medium
activity at 500 µM ([3]; Human betaherpesvirus 5, MRC5, 120 h, 0.5 mM, 5 days HEF growth): 5.3%
activity at 2000 µM ([3]; Human betaherpesvirus 5, MRC5, 120 h, 2.0 mM, 5 days HEF growth): 0.88%
activity at 500 µM ([3]; Human betaherpesvirus 5, MRC5, 144 h, 0.5 mM, 6 days HEF growth): 3.5%
activity at 2000 µM ([3]; Human betaherpesvirus 5, MRC5, 144 h, 2.0 mM, 6 days HEF growth): 0.15%
HEF cell growth (in words) [4]: grew normally
antiviral effect on HSV type I strain (in words) [5]: only minor effect
cytotoxicity relative to castanospermine (in words) [6]: substantially less cytotoxic
